Experimental data as given in article PMC7385629 (Scientific Reports, 2020).

How the values were obtained:
CTAT = target: T1, CTAT (Leishmania donovani, UniProt A0A3Q8INT3); experiment: UV absorption scan […]-500 nm, aldimine bond formation; format: binding; details: 4 mM PLP; 0.5 and 1 mg/ml protein; 25 °C; 30 min; covalent, internal aldimine at K286
T1 construct: gene LdCL_360030600; C-terminal 60 residues (180 bp) deleted; printed 389 aa (1,167 bp; end may be 388); two His-tags (N and C) from pET28a(+), about 45 kDa on gel, E. coli BL21, Ni-NTA
T1 sequence (A0A3Q8INT3 entry or part of it): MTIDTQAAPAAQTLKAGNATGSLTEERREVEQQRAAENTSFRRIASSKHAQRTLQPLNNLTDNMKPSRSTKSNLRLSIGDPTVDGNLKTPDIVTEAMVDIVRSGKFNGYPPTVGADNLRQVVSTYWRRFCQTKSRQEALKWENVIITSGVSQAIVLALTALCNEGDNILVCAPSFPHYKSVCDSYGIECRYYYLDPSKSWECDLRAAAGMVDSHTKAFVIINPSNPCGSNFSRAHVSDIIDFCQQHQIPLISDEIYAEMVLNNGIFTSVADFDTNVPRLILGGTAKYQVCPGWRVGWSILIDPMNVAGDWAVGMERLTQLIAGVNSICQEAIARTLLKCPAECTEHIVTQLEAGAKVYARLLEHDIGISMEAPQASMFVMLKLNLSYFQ

NTAT [1] = target: T2, NTAT (Leishmania donovani, UniProt A0A3Q8INT3); experiment: as above; format: binding; design: gene LdCL_360030600; N-terminal 60 residues (180 bp) deleted, starts T61, runs to native C-terminus; His-tag from pET28a(+), E. coli BL21, Ni-NTA; parent gene 1,347 bp; details: 4 mM PLP; 0.5 and 1 mg/ml protein; 25 °C; 30 min; covalent, internal aldimine at K286
T2 sequence (A0A3Q8INT3 entry or part of it): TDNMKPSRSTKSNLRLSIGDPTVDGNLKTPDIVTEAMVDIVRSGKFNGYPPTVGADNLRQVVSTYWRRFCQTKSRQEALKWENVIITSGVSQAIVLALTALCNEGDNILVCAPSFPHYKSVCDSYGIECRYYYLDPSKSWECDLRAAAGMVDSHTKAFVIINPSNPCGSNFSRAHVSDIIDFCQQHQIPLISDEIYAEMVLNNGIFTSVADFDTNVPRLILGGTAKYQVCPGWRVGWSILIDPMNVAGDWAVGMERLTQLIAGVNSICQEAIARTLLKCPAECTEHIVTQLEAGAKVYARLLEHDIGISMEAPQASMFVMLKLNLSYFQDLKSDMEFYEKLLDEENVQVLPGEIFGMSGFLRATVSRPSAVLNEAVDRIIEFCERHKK

NTAT [2] = target: T2, NTAT; design: gene LdCL_360030600; details: co-substrate sodium pyruvate 100 mM; 30 µM PLP; pH 8; 37 °C; tyrosine 0-7 mM; apparent

SMILES	UV absorption scan 300-500 nm, aldimine bond formation (CTAT)	UV absorption scan 300-500 nm, aldimine bond formation (NTAT [1])	Km (NTAT [2])
Cc1ncc(COP(=O)(O)O)c(C=O)c1O [PLP]	In CTAT, the PLP binding was higher than NTAT	The increase in the concentration of NTAT or CTAT bound more PLP and formed aldimine bonds	–
N[C@@H](Cc1ccc(O)cc1)C(=O)O [tyrosine]	–	–	3.47 ± 0.796 mM
